In patent US20230133910A1, “NEW METHOD FOR DETECTING AND QUANTIFYING RNA” (EAST CHINA UNIVERSITY OF SCIENCE AND TECHNOLOGY, priority 2020, published 2023):

Columns and labels:
Carrot-1 RNA aptamer = test: Properties of Carrot-1 RNA aptamer with different fluorophores (spectra, extinction coefficient, quantum yield, activation fold); assay type: biochemical; conditions: for fluorescence intensity: excited at 524±10 nm, emission 580 nm±10 nm, 5 μM Carrot-1 + 1 μM IV-39, or control 1 μM IV-39 alone
Protocol: (§1) (5) Function detection of nucleic acid aptamers Carrot or Carrot mutant nucleic acid aptamer molecules were prepared according to common experimental method (I), 5 μM of nucleic acid aptamer molecules and 1 μM of fluorophore molecules were incubated in detection buffer (40 mM HEPES, pH 7.4, 125 mM KCl, 5 mM MgCl2, 5% DMSO), and Synergy Neo2 multifunctional microplate reader was used for detecting and obtaining the maximum excitation peak and the maximum emission peak of the fluorescence of the nucleic acid aptamer-fluorophore molecule complex. The Synergy Neo2 multifunctional microplate reader was used again for detecting the fluorescence intensity of the aptamer-fluorophore molecule complex under its maximum excitation and emission conditions. Control sample (1 μM of fluorophore molecules without nucleic acid aptamer) was measured under the same condition, and the ratio of fluorescence intensity was calculated. […] By using Synergy Neo2 multifunctional microplate reader, it was detected that the fluorescence intensity of the complex was 5720 when it was excited at 524±10 nm and emitted under the emission condition of 580 nm±10 nm, while fluorescence intensity of the control sample (1 μM of IV-39 fluorophore molecules) under the same detection condition was 20, so the activation multiple of Carrot-1 nuclear acid aptamer to IV-39 fluorophore molecule was 286.
In order to detect the spectral properties of the Carrot-IV-39 complex, Carrot-1 (SEQ ID NO: 2) RNA was prepared according to the commonly used experimental method (1). 1 μM IV-39 with 5 μM Carrot-1 was incubated.
Carrot-1 RNA aptamer was prepared according to the commonly used experimental methods (1), and was used to detect the properties of IV-39 analogues upon Carrot binding, including the fluorescence spectrum, extinction coefficient, quantum yield and fluorescence activation fold. From the data shown in the table, Carrot-1 still could activate the fluorescence of IV-39 analogues.

[1] = system: tdMCP-NanoLuc-tdMCP fusion protein; conditions: 293T/17 cells, 1 μM IV-4, 20 μM Furimazine
From the text: In order to use Carrot to detect RNA-protein interactions, the interaction between phage capsid protein MCP and its binding sequence MS2 RNA was used as an example. […] The cDNAs encoding tdMCP protein (the dimeric form of MCP, SEQ ID No: 32) and NanoLuc protein (SEQ ID No: 33) were synthesized. Primers P29 and P30, P33 and P34 were used to amplify tdMCP gene fragment, respectively. Primers P35 and P36 were used to amplify NanoLuc gene fragment. The obtained fragments were inserted into the HindIII and XhoI sites of pCDNA3.1 hygro(+) to generate pCDNA3.1 hygro(+)-tdMCP-NanoLuc-tdMCP according to the commonly used experimental method (4), the sequence of the fusion protein encoded by which is SEQ ID No:34.
After 24 h of transfection, 1 μM IV-4 fluorophore was added to label Carrot. Imaging was taken immediately after addition of 20 μM Furimazine to the medium.

[2] = Fluorescence activation of IV-39 fluorophore by Carrot-1 and Carrot mutants (function detection of nucleic acid aptamers); assay type: biochemical; conditions: for Activation fold: 1 μM IV-39 incubated with 5 μM Carrot-1 mutant RNA
Protocol: as §1
In order to detect the fluorescence activation of IV-39 fluorophore by different Carrot mutant, the Carrot-1 sequence was mutated according to Table 1. The Carrot RNA containing different mutations were prepared according to the commonly used experimental method (1). 1 μM IV-39 was incubated with 5 μM Carrot-1 mutant RNA and their fluorescence activation folds were determined according to the commonly used experimental method (5). […] Several Carrot-1 mutants containing 2-5 mutations still retained strong fluorescence activation of IV-39 (>100 times) (Table 3). In summary, many Carrot-1 mutants containing single and multiple mutants still retain the ability to activate the fluorescence of IV-39 fluorophore.

Carrot-1 = test: Binding constant of Carrot-1 and IV-39 by fluorescence titration; conditions: 20 nM Carrot-1 incubated with different concentrations of IV-39
Protocol: In order to detect the binding constant of Carrot-1 and IV-39, 20 nM Carrot-1 was incubated with different concentrations of IV-39 and their fluorescence was determined.

293T/17 cells = test: RNA labeling in mammalian cells using tRNA-Carrot-2 and IV-39; assay type: cell-based
From the text: In major imaging experiments of the examples, a Leica SP8 confocal laser microscope was used for photographing, HCXPL APO 63.0×1.47 oil lens and HyD detector were used, and various lasers, such as 405 nm, 457 nm, 476 nm, 488 nm, 497 nm, 514 nm nm, 561 nm and 633 nm, were used for imaging; complexes formed by each Carrot and dye molecules were imaged by laser close to the wavelength corresponding to the maximum excitation peak. For others, GFP used a 488 nm laser; Hoechst and DAPI fluorescence used a 405 nm laser; and Rhodamine used a 561 nm laser.
In order to use Carrot and IV-39 for RNA labeling in mammalian cells, the reported Pepper and Corn aptamer (binding to HBC599 and DFHO fluorophores, respectively) were used as the controls (Chen et al. Nature Biotechnology 2019. 37: 1287-1293; Song et al. Nature Chemical Biology 2017. 13: 1187-1194). The mammalian cell expression plasmids expressing the RNA aptamers were constructed. cDNAs encoding tRNA-Carrot-2 (SEQ ID No: 4), tRNA-Pepper (SEQ ID No: 22) and tRNA-Corn (SEQ ID No: 21) were synthesized and amplified using the primers P7 and P8, and the primers P9 and P10 were used to amplify pEGFP-N1 to remove the promoter and multiple cloning site regions. […] Fluorescence imaging was performed according to the commonly used experimental method (3).

[3] = complex of 5 μM Carrot-1 and 1 μM IV-39

Molecule: Carrot-1: RNA aptamer with the sequence of SEQ ID NO: 1, General Formula Carrot structure N1AGAUUGUAAACAN14-N15-N16GACACUN23 (GGGAAGAUUGUAAACACGCCGAAAGGCGGACACUUCCC; chemistry not given here)
- maximum emission peak (Carrot-1 RNA aptamer; [3]): 580 nm
- maximum excitation peak (Carrot-1 RNA aptamer; [3]): 524 nm
- fluorescence intensity (Carrot-1 RNA aptamer): 5720
- fluorescence of Carrot-IV-4 complex by luminescence energy transfer (BRET) [1]: could not emit obvious orange-red fluorescence
- Activation fold ([2]; multiple mutations): 286 fold
- Activation fold ([2]; single mutation): 286 fold
- activation multiple of aptamer to IV-39 fluorophore molecule ([2]; 5 μM Carrot-1, 1 μM IV-39, ratio of fluorescence intensity to fluorophore alone): 286

Molecule: CN1C(=O)/C(=C/c2ccc(N(C)CCO)cc2)N=C1/C=C/c1ccccc1 [IV-39]
- Kd (Carrot-1): 58 nM
- fluorescence intensity (Carrot-1 RNA aptamer): 20

B1: tRNA-Carrot-IV-39: complex of tRNA-Carrot-2 (SEQ ID No: 4) RNA aptamer and IV-39 fluorophore (nucleic acid)
chain: GCCCGGAUAGCUCAGUCGGUAGAGCAGCGGCCGGAAGAUUGUAAACACGCCGAAAGGCGGACACUUCCGGCCGCGGGUCCAGGGUUCAAGUCCCUGUUCGGGCGCCA
modifications: RNA aptamer in complex with IV-39 fluorophore, further chemistry not given here
- fluorescence intensity compared with tRNA-Pepper-HBC599 and tRNA-Corn-DFHO complexes (293T/17 cells; 0.5 μM IV-39, 0.5 μM HBC599, 10 μM DFHO): markedly higher
- fluorescence in cells (293T/17 cells; 0.5 μM IV-39, 24 h after transfection, with or without 20 mM Mg2+): bright orange fluorescence
